From patent publication US20200017490A1, “Novel Mesoionic Insecticidal Compound” (Nippon Kayaku Kabushiki Kaisha, priority 2016, published 2020)

Columns and labels:
Experiment in all cases: whole plant or invertebrate
Type in all cases: in vivo
[1] = system: Brown Planthopper (Nilaparvata lugens); conditions: foliar, 120 h, rice seedling foliage dipping, third instar larvae, 5 days after the treatment, 25° C.
Experimental: Biological Test Example 3: Test (Foliage Dipping) for Controlling Brown Planthopper (Nilaparvata lugens)
Ten sampled rice seedlings were dipped in the chemical solution of the test compounds diluted with water to 200 ppm in an amount of 20 mL and air-dried. After air-drying, the rice seedlings held with urethane in a glass cylinder having an inner diameter of 4.5 cm and a length of 14 cm were set up in a plastic cup containing 40 mL of water. Larvae of brown planthoppers in the third instar larva were released in the glass cylinder. The cylinder was covered with a lid of medicine paper and kept in a chamber at a constant temperature of 25° C. for rearing.

[2] = system: Cotton Aphid (Aphis gossypii); conditions: 120 h, foliar spraying on cucumber leaf, cotton aphid offspring, 5 days after the treatment, 25° C.
Experimental: Biological Test Example 1: Test (Foliar Spraying) for Controlling Cotton Aphid (Aphis gossypii)
A cucumber leaf cut to a diameter of 3.5 cm was placed on cotton wool moistened with water. Two adult cotton aphids were released there for offspring for 24 hours and the adult insects were then removed. The diluent of the test compounds diluted with water to 200 ppm in an amount of 2 mL was sprayed onto the cucumber leaves with a spray tower. After air-drying, the sample with cotton wool was placed in a plastic cup, which was covered with a lid and kept in a chamber at a constant temperature of 25° C. for rearing.

[3] = system: Southern Yellow thrips (Thrips palmi); conditions: 72 h, foliar spraying on cucumber leaf, first instar larvae, 3 days after the treatment, 25° C.
Experimental: Biological Test Example 5: Test (Foliar Spraying) for Controlling Southern Yellow thrips (Thrips palmi)
A cucumber leaf cut to a diameter of 1.5 cm was placed on cotton wool moistened with water. The diluent of the test compounds diluted with water to 200 ppm in an amount of 2 mL was sprayed onto the cucumber leaves with a spray tower. After air-drying, 5 larvae of southern yellow thrips in the first instar larva were released there and placed with cotton wool in a plastic cup, which was covered with a lid and kept in a chamber at a constant temperature of 25° C. for rearing.

[4] = system: Diamondback Moth (Plutella xylostella); conditions: foliar, 120 h, cabbage leaf dipping, third instar larvae, 5 days after the treatment, 25° C.
Experimental: Biological Test Example 2: Test (Foliage Dipping) for Controlling Diamondback Moth (Plutella xylostella)
A cabbage leaf cut to a diameter of 5.0 cm was dipped in the diluent of the test compounds diluted with water to 200 ppm in an amount of 20 mL and air-dried. After air-drying, the cabbage leaf was placed in a plastic cup, and 10 larvae of diamondback moths in the third instar larva were released there. The cup was covered with a lid and kept in a chamber at a constant temperature of 25° C. for rearing.

[5] = system: Brown Planthopper (Nilaparvata lugens); conditions: rice seedling root dipping, third instar larvae released after 2 days, 5 days after the treatment, 25° C.
Experimental: Biological Test Example 4: Test (Root Dipping) for Controlling Brown Planthopper (Nilaparvata lugens)
Ten sampled rice seedlings held with urethane in a glass cylinder having an inner diameter of 4.5 cm and a length of 14 cm were set up in a plastic cup containing 40 mL of chemical solution diluted with water to 0.8 ppm. After 2 days, 10 larvae of brown planthoppers in the third instar larva were released in the glass cylinder. The glass cylinder was covered with a lid of medicine paper and kept in a chamber at a constant temperature of 25° C. for rearing.

COc1cccc(-c2c(O)[n+](CCC=N[N+](C)(C)C)c3ccccn3c2=O)c1 [Compound K-1] was tested. Which mortality at 200 ppm [1] did it give?
The mortality at 200 ppm was at least 80%.

Which mortality at 200 ppm [2] does the source give for O=c1c(-c2cccc(C(F)(F)F)c2)c([O-])[n+](CCC=NOc2ccc(Cl)nc2)c2ccccn12 [Compound K-2] here?
Its mortality at 200 ppm is at least 80%.

What about the mortality at 200 ppm [3] of the same molecule?
The mortality at 200 ppm was at least 80%.

And the mortality at 200 ppm [4]?
Its mortality at 200 ppm is at least 80%.

And the mortality at 0.8 ppm [5]?
Its mortality at 0.8 ppm is at least 80%.

How did the mortality at 200 ppm [1] turn out when CC(C)(C)[S+]([O-])N=CCC[n+]1c([O-])c(-c2cccc(C(F)(F)F)c2)c(=O)n2ccccc21 (stereo not shown) [Compound K-3] was run?
Its mortality at 200 ppm is at least 80%.

Which mortality at 200 ppm [1] does the source give for CC(C)=CCON=CCC[n+]1c([O-])c(CC=C(C)C)c(=O)n2ccccc21 [Compound K-7] here?
Its mortality at 200 ppm is at least 80%.

With CCOC(C)ON=CCC[n+]1c([O-])c(CC=C(C)C)c(=O)n2ccccc21 (stereo not shown) [Compound K-8] as the molecule, how does the mortality at 200 ppm [1] read?
Its mortality at 200 ppm is at least 80%.

Which mortality at 200 ppm [1] does the source give for C=CCc1c([O-])[n+](CCC=NOC(C)OCC)c2ccccn2c1=O (stereo not shown) [Compound K-9] here?
Its mortality at 200 ppm is at least 80%.

With O=c1c(-c2ccccc2)c([O-])[n+](CCC=NOC2COCCO2)c2ccccn12 (stereo not shown) [Compound K-10] as the molecule, how does the mortality at 200 ppm [1] read?
The mortality at 200 ppm was at least 80%.
